According to patent US20240051985A1, “METTL3 MODULATORS” (ACCENT THERAPEUTICS, INC., priority 2020, published 2024):
pIC50: −log10 of the molar value.

Columns and labels:
PRMT5-MEP50 = PRMT5-MEP50 (Homo sapiens, UniProt O14744); assay: PRMT5 assay (3H-SAM flashplate); conditions: PRMT5 biochemical assay
Procedure: Assays were performed in a 25 μl-volume in 384-well V-bottom polypropylene microplates (Greiner Bio-One, cat. No. 781280) at ambient temperature. Optimized 1× assay buffer was 20 mM Tris-HCl pH 8.0, 1 mM DTT, […]. For compound screening PRMT5-MEP50 (final concentration, f.c.=2.5 nM) was added using a Multidrop Combi (ThermoFisher Scientific, Waltham, MA) and preincubated for 5 min. Reactions were started by adding 3′ biotinylated histone H4 peptide acetylated on serine 1 (Ac-[…]-Biotin) (f.c.=100 nM) and 3H-SAM (f.c.=250 nM) substrates. Reactions proceeded for 60 minutes and were quenched with excess non-radioactive SAM (f.c.=15 μM). The reactions were then transferred to streptavidin-coated flashplates and incubated for 2 hours at 25° C. Following two washing cycles with 0.1% Tween-20, the plates were sealed and read on a TopCount (PerkinElmer, Waltham, MA) plate-based scintillation counter. For determination of kinetic parameters, reaction times were optimized so that measurements were taken during the initial velocity phase of the reaction.

METTL3/METTL14 = METTL3/METTL14 (Homo sapiens, UniProt Q86U44); assay: METTL3-14 standard enzyme assay (3H-SAM flashplate); conditions: METTL3 biochemical assay
Chain of METTL3/METTL14 (Q86U44 whole entry, species assumed): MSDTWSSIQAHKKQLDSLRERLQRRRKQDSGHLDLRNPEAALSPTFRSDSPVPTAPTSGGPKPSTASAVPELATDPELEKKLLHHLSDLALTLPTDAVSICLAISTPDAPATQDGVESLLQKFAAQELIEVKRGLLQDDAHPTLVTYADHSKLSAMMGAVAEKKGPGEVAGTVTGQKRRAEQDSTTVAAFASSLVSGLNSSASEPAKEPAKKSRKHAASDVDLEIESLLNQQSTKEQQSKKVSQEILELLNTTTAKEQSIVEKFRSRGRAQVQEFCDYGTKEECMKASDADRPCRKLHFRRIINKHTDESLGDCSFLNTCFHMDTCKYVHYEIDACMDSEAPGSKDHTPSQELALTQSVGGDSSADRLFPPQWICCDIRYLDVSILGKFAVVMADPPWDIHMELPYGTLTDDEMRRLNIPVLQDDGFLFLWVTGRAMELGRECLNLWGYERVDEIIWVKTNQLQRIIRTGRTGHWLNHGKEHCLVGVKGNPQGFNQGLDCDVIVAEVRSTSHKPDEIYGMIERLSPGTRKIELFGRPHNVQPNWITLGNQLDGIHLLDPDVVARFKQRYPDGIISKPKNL
Chain of METTL3/METTL14 (Q9HCE5 whole entry partner, species assumed): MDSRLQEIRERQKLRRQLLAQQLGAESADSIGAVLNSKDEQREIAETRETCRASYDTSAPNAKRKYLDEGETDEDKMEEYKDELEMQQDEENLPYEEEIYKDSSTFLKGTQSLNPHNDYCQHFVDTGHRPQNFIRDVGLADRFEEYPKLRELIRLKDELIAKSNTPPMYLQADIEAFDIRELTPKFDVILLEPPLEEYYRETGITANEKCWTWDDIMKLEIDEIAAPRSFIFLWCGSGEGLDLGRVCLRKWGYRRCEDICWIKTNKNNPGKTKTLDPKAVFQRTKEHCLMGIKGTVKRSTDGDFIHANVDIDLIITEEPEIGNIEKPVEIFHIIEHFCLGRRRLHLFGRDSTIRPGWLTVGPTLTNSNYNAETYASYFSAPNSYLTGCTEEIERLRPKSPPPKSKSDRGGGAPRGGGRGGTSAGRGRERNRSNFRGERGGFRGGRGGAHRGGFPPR
Procedure: METTL3-14 Standard Enzyme Assay
Assays were performed in a 25 μl-volume in 384-well V-bottom polypropylene microplates (Greiner Bio-One, cat. No. 781280) at ambient temperature. Optimized 1× assay buffer was 20 mM HEPES pH 7.5, 50 mM KCl, 250 μM MgCl2, 1 mM DTT, 0.01% Tween, 0.01% BSG, 0.004 U/μl RNAseOUT (cat. No. 10777019, ThermoFisher Scientific, Waltham, MA). For compound screening METTL3/METTL14 (final concentration, f.c.=2.5 nM) was added using a Multidrop Combi (ThermoFisher Scientific, Waltham, MA) and preincubated for 5 min. Reactions were started by adding 3′ biotinylated RNA (UCUGGACUAAA-biotin) (f.c.=100 nM) and 3H-SAM (f.c.=100 nM) substrates. Reactions proceeded for 30 minutes and were quenched with excess non-radioactive SAM (f.c.=15 μM). The reactions were then transferred to streptavidin-coated flashplates and incubated for 2 hours at 25° C. Following two washing cycles with 0.1% Tween-20, the plates were sealed and read on a TopCount (PerkinElmer, Waltham, MA) plate-based scintillation counter. For determination of kinetic parameters, reaction times were optimized so that measurements were taken during the initial velocity phase of the reaction.

Chain of PRMT5-MEP50 (O14744 whole entry): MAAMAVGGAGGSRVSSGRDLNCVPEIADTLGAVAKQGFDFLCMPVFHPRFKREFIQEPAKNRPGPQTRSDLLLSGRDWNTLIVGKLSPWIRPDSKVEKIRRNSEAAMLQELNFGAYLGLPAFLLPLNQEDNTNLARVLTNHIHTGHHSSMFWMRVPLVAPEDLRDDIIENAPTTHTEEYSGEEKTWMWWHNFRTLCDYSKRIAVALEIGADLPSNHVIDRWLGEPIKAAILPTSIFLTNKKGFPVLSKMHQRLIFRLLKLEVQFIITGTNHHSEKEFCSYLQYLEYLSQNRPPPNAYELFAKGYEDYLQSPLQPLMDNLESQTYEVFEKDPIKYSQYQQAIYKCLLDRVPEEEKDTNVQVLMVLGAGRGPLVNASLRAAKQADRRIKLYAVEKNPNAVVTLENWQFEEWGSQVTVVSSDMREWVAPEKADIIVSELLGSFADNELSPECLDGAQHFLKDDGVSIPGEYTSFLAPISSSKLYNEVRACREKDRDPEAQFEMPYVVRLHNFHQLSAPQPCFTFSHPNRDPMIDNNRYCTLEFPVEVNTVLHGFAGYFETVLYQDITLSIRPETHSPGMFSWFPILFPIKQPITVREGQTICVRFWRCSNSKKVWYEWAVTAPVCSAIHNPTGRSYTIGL
Chain of PRMT5-MEP50 (Q9BQA1 whole entry partner): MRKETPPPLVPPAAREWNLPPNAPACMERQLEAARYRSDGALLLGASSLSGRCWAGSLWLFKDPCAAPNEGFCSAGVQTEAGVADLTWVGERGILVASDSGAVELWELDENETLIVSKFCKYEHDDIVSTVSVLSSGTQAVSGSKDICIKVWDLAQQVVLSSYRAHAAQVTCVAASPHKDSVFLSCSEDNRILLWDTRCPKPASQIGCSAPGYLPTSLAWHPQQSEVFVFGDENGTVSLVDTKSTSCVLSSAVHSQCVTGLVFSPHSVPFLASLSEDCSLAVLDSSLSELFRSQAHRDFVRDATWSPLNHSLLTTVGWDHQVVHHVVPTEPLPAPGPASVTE

Cn1ccc(-c2cn([C@@H]3O[C@H](C(=O)N(CC[C@H](N)C(=O)O)C4CCNCC4)[C@@H](O)[C@H]3O)c3ncnc(N)c23)n1 [Compound I-9]
pIC50 (PRMT5-MEP50; Table 3): ≤ 6.00
pIC50 (METTL3/METTL14; Table 3): 6.00 to 7.00

COCCN(C(=O)[C@H]1O[C@@H](n2cc(-c3ccn(C)n3)c3c(N)ncnc32)[C@H](O)[C@@H]1O)c1ccc2ccc(N3CCC3)nc2c1 [Compound I-11]
pIC50 (PRMT5-MEP50; Table 3): 6.00 to 7.00
pIC50 (METTL3/METTL14; Table 3): 6.00 to 7.00

COCCN(C(=O)[C@H]1O[C@@H](n2ccc3c(N)ncnc32)[C@H](O)[C@@H]1O)c1ccc2ccc(N3CCC3)nc2c1 [Compound I-12]
pIC50 (PRMT5-MEP50; Table 3): ≤ 6.00
pIC50 (METTL3/METTL14; Table 3): ≤ 6.00

Nc1ncnc2c1c(-n1cccn1)cn2[C@H]1C[C@H](O)[C@@H](C(=O)Nc2ccc3ccc(N4CCC4)nc3c2)O1 [Compound I-13]
pIC50 (PRMT5-MEP50; Table 3): ≤ 6.00
pIC50 (METTL3/METTL14; Table 3): > 8.00

Nc1ccnc(NC(=O)[C@H]2O[C@@H](n3cc(-n4cccn4)c4c(N)ncnc43)C[C@@H]2O)c1 [Compound I-18]
pIC50 (PRMT5-MEP50; Table 3): ≤ 6.00
pIC50 (METTL3/METTL14; Table 3): 7.00 to 8.00

Cn1ccc(-c2cn([C@@H]3O[C@H](C(=O)NCC4CCN(CCO)CC4)[C@@H](O)[C@H]3O)c3ncnc(N)c23)n1 [Compound I-19]
pIC50 (PRMT5-MEP50; Table 3): 7.00 to 8.00
pIC50 (METTL3/METTL14; Table 3): 6.00 to 7.00

Cn1ccc(-c2cn([C@@H]3O[C@H](C(=O)NCc4cnccn4)[C@@H](O)[C@H]3O)c3ncnc(N)c23)n1 [Compound I-20]
pIC50 (PRMT5-MEP50; Table 3): ≤ 6.00
pIC50 (METTL3/METTL14; Table 3): 6.00 to 7.00

Cn1ccc(-c2cn([C@@H]3O[C@H](C(=O)NCC4CCOCC4)[C@@H](O)[C@H]3O)c3ncnc(N)c23)n1 [Compound I-21]
pIC50 (PRMT5-MEP50; Table 3): ≤ 6.00
pIC50 (METTL3/METTL14; Table 3): 6.00 to 7.00

Cn1ccc(-c2cn([C@@H]3O[C@H](C(=O)NCC4CCC(F)(F)CC4)[C@@H](O)[C@H]3O)c3ncnc(N)c23)n1 [Compound I-22]
pIC50 (PRMT5-MEP50; Table 3): 6.00 to 7.00
pIC50 (METTL3/METTL14; Table 3): 6.00 to 7.00

Cn1ccc(-c2cn([C@@H]3O[C@H](C(=O)NCC4CCN(CC(F)F)CC4)[C@@H](O)[C@H]3O)c3ncnc(N)c23)n1 [Compound I-23]
pIC50 (PRMT5-MEP50; Table 3): 6.00 to 7.00
pIC50 (METTL3/METTL14; Table 3): ≤ 6.00

CN1CCC(CNC(=O)[C@H]2O[C@@H](n3cc(-c4ccn(C)n4)c4c(N)ncnc43)[C@H](O)[C@@H]2O)CC1 [Compound I-24]
pIC50 (PRMT5-MEP50; Table 3): 7.00 to 8.00
pIC50 (METTL3/METTL14; Table 3): 6.00 to 7.00

CN1CCC(NC(=O)[C@H]2O[C@@H](n3cc(-c4ccn(C)n4)c4c(N)ncnc43)[C@H](O)[C@@H]2O)CC1 [Compound I-25]
pIC50 (PRMT5-MEP50; Table 3): 7.00 to 8.00
pIC50 (METTL3/METTL14; Table 3): 6.00 to 7.00

Cn1ccc(-c2cn([C@@H]3O[C@H](C(=O)NCc4ccccc4)[C@@H](O)[C@H]3O)c3ncnc(N)c23)n1 [Compound I-26]
pIC50 (PRMT5-MEP50; Table 3): ≤ 6.00
pIC50 (METTL3/METTL14; Table 3): 6.00 to 7.00

CN1CCC(NC(=O)[C@H]2O[C@@H](n3ccc4c(N)ncnc43)[C@H](O)[C@@H]2O)CC1 [Compound I-27]
pIC50 (PRMT5-MEP50; Table 3): 6.00 to 7.00
pIC50 (METTL3/METTL14; Table 3): ≤ 6.00

Nc1ncnc2c1ccn2[C@@H]1O[C@H](C(=O)NCC2CCN(CC(F)F)CC2)[C@@H](O)[C@H]1O [Compound I-28]
pIC50 (PRMT5-MEP50; Table 3): ≤ 6.00
pIC50 (METTL3/METTL14; Table 3): ≤ 6.00

CCNc1ccnc(NC(=O)[C@H]2O[C@@H](n3cc(-n4cccn4)c4c(N)ncnc43)C[C@@H]2O)c1 [Compound I-29]
pIC50 (PRMT5-MEP50; Table 3): ≤ 6.00
pIC50 (METTL3/METTL14; Table 3): 6.00 to 7.00

Nc1ncnc2c1c(-n1cccn1)cn2[C@H]1C[C@H](O)[C@@H](C(=O)Nc2ccc3nc(NC4CCC4)[nH]c3c2)O1 [Compound I-30]
pIC50 (PRMT5-MEP50; Table 3): 6.00 to 7.00
pIC50 (METTL3/METTL14; Table 3): > 8.00

CNc1ccc2ccc(N(CC[C@H](N)C(=O)O)C(=O)[C@H]3O[C@@H](n4cc(-c5ccn(C)n5)c5c(N)ncnc54)[C@H](O)[C@@H]3O)cc2n1 [Compound I-38, (2S)-2-amino-4-{1-[(2S,3S,4R,5R)-5-[4-amino-5-(1-methyl-1H-pyrazol-3-yl)-7H-pyrrolo[2,3-d]pyrimidin-7-yl]-3,4-dihydroxyoxolan-2-yl]-N-[2-(methylamino)quinolin-7-yl]formamido}butanoic acid]
pIC50 (PRMT5-MEP50; Table 4): 6.00 to 7.00
pIC50 (METTL3/METTL14; Table 4): > 8.00

Cn1ccc(-c2cn([C@@H]3O[C@H](C(=O)N(CC[C@H](N)C(=O)O)c4ccc5nc(N)[nH]c5c4)[C@@H](O)[C@H]3O)c3ncnc(N)c23)n1 [Compound I-39, (2S)-2-amino-4-[N-(2-amino-1H-1,3-benzodiazol-6-yl)-1-[(2S,3S,4R,5R)-5-[4-amino-5-(1-methyl-1H-pyrazol-3-yl)-7H-pyrrolo[2,3-d]pyrimidin-7-yl]-3,4-dihydroxyoxolan-2-yl]formamido]butanoic acid]
pIC50 (PRMT5-MEP50; Table 4): ≤ 6.00
pIC50 (METTL3/METTL14; Table 4): 6.00 to 7.00

Cn1ccc(-c2cn([C@@H]3O[C@H](C(=O)NC4CCN(CCN)CC4)[C@@H](O)[C@H]3O)c3ncnc(N)c23)n1 [Compound I-41, (2S,3S,4R,5R)-5-[4-amino-5-(1-methyl-1H-pyrazol-3-yl)-7H-pyrrolo[2,3-d]pyrimidin-7-yl]-N-[1-(2-aminoethyl)piperidin-4-yl]-3,4-dihydroxyoxolane-2-carboxamide]
pIC50 (PRMT5-MEP50; Table 4): ≤ 6.00
pIC50 (METTL3/METTL14; Table 4): ≤ 6.00

CN1CCC(N(CC2CN(C)C2)C(=O)[C@H]2O[C@@H](n3cc(-c4ccn(C)n4)c4c(N)ncnc43)[C@H](O)[C@@H]2O)CC1 [Compound I-47]
pIC50 (PRMT5-MEP50; Table 4): 7.00 to 8.00
pIC50 (METTL3/METTL14; Table 4): ≤ 6.00

CN1CCC(N(CCCc2nn[nH]n2)C(=O)[C@H]2O[C@@H](n3cc(-c4ccn(C)n4)c4c(N)ncnc43)[C@H](O)[C@@H]2O)CC1 [Compound I-48]
pIC50 (PRMT5-MEP50; Table 4): 7.00 to 8.00
pIC50 (METTL3/METTL14; Table 4): ≤ 6.00

CN1CCC(N(CCCNC(=O)OCc2ccccc2)C(=O)[C@H]2O[C@@H](n3cc(-c4ccn(C)n4)c4c(N)ncnc43)[C@H](O)[C@@H]2O)CC1 [Compound I-49, benzyl N-(3-{1-[(2S,3S,4R,5R)-5-[4-amino-5-(1-methyl-1H-pyrazol-3-yl)-7H-pyrrolo[2,3-d]pyrimidin-7-yl]-3,4-dihydroxyoxolan-2-yl]-N-(1-methylpiperidin-4-yl)formamido}propyl)carbamate]
pIC50 (PRMT5-MEP50; Table 4): 7.00 to 8.00
pIC50 (METTL3/METTL14; Table 4): 6.00 to 7.00

CN(C)CCCN(C(=O)[C@H]1O[C@@H](n2cc(-c3ccn(C)n3)c3c(N)ncnc32)[C@H](O)[C@@H]1O)C1CCN(C)CC1 [Compound I-51, (2S,3S,4R,5R)-5-[4-amino-5-(1-methyl-1H-pyrazol-3-yl)-7H-pyrrolo[2,3-d]pyrimidin-7-yl]-N-[3-(dimethylamino)propyl]-3,4-dihydroxy-N-(1-methylpiperidin-4-yl)oxolane-2-carboxamide]
pIC50 (PRMT5-MEP50; Table 4): 6.00 to 7.00
pIC50 (METTL3/METTL14; Table 4): 6.00 to 7.00

CN1CCC(NC(=O)[C@H]2C[C@@H](n3cc(-c4ccn(C)n4)c4c(N)ncnc43)C[C@@H]2O)CC1 [Compound I-55, (1S,2S,4R)-4-(4-amino-5-(1-methyl-1H-pyrazol-3-yl)-7H-pyrrolo[2,3-d]pyrimidin-7-yl)-2-hydroxy-N-(1-methylpiperidin-4-yl)cyclopentane-1-carboxamide]
pIC50 (PRMT5-MEP50; Table 4): ≤ 6.00
pIC50 (METTL3/METTL14; Table 4): ≤ 6.00

CN1CCC(N(CCCC(=O)O)C(=O)[C@H]2O[C@@H](n3cc(-c4ccn(C)n4)c4c(N)ncnc43)[C@H](O)[C@@H]2O)CC1 [Compound I-58, 4-{1-[(2S,3S,4R,5R)-5-[4-amino-5-(1-methyl-1H-pyrazol-3-yl)-7H-pyrrolo[2,3-d]pyrimidin-7-yl]-3,4-dihydroxyoxolan-2-yl]-N-(1-methylpiperidin-4-yl)formamido}butanoic acid]
pIC50 (PRMT5-MEP50; Table 4): 7.00 to 8.00
pIC50 (METTL3/METTL14; Table 4): ≤ 6.00

C#CCCCN(C(=O)[C@H]1O[C@@H](n2cc(-c3ccn(C)n3)c3c(N)ncnc32)[C@H](O)[C@@H]1O)C1CCN(C)CC1 [Compound I-59, (2S,3S,4R,5R)-5-(4-amino-5-(1-methyl-1H-pyrazol-3-yl)-7H-pyrrolo[2,3-d]pyrimidin-7-yl)-3,4-dihydroxy-N-(1-methylpiperidin-4-yl)-N-(pent-4-yn-1-yl)tetrahydrofuran-2-carboxamide]
pIC50 (PRMT5-MEP50; Table 4): > 8.00
pIC50 (METTL3/METTL14; Table 4): 6.00 to 7.00

CN1CCC(N(CCCc2cnoc2)C(=O)[C@H]2O[C@@H](n3cc(-c4ccn(C)n4)c4c(N)ncnc43)[C@H](O)[C@@H]2O)CC1 [Compound I-152]
pIC50 (PRMT5-MEP50; Table 4): 6.00 to 7.00
pIC50 (METTL3/METTL14; Table 4): 6.00 to 7.00

CN1CCC(N(CCCNc2ccccn2)C(=O)[C@H]2O[C@@H](n3cc(-c4ccn(C)n4)c4c(N)ncnc43)[C@H](O)[C@@H]2O)CC1 [Compound I-153]
pIC50 (PRMT5-MEP50; Table 4): 7.00 to 8.00
pIC50 (METTL3/METTL14; Table 4): ≤ 6.00

CN1CCC(N(C[C@H]2CCNC2)C(=O)[C@H]2O[C@@H](n3cc(-c4ccn(C)n4)c4c(N)ncnc43)[C@H](O)[C@@H]2O)CC1 [Compound I-154]
pIC50 (PRMT5-MEP50; Table 4): 6.00 to 7.00
pIC50 (METTL3/METTL14; Table 4): 6.00 to 7.00

CN1CCC(N(CCCC#N)C(=O)[C@H]2O[C@@H](n3cc(-c4ccn(C)n4)c4c(N)ncnc43)[C@H](O)[C@@H]2O)CC1 [Compound I-155]
pIC50 (PRMT5-MEP50; Table 4): 7.00 to 8.00
pIC50 (METTL3/METTL14; Table 4): 6.00 to 7.00

Cn1ccc(-c2cn([C@@H]3O[C@H](C(=O)N4CCC[C@H](C(N)=O)C4)[C@@H](O)[C@H]3O)c3ncnc(N)c23)n1 [Compound I-200]
pIC50 (PRMT5-MEP50; Table 4): ≤ 6.00
pIC50 (METTL3/METTL14; Table 4): ≤ 6.00
